Laboratory results from patent US9988430B2, “Stable GLP-1 based GLP-1/glucagon receptor co-agonists” (Novo Nordisk A/S, priority 2014, dated 2018).
*1 amine or outer side, *2 acyl side, *3 side chain or, on linkers, in order; H or OH if unused. Where a SMILES comes first, the peptide text is derived from it. Side-chain parts run from the residue outwards. [ ]: non-standard residue; d: D form. The star is where a group is joined. C18 diacid = O=C(O)CCCCCCCCCCCCCCCCC(=O)*; γGlu = O=C(O)[C@H](CCC(=O)[*:2])N[*:1]; Desaminohistidyl = O=C(CCc1c[nH]cn1)*; AEEA = NCCOCCOCC(=O)O; Aib = CC(C)(N)C(=O)O

Assays:
human GLP-1 receptor = target: T1, human GLP-1 receptor (Homo sapiens, UniProt P43220); test: Assay (II)(a): GLP-1 receptor binding, [125I]GLP-1 displacement, SPA on BHK membranes; conditions: displacement of [125I]GLP-1, membranes with human GLP-1 receptor; read-out: IC50 GLP-1R
T1 construct: expressed in transfected cells; host or cells: membranes of BHK cells, parent line BHKTS13, clone FCW467-12A
Outline: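 Membranes from BHK cells expressing human GLP-1 receptor with WGA SPA beads, [125I]GLP-1(7-36)NH2 (480 pM added solution) and compound in HEPES pH 7.4 buffer with EGTA, MgCl2, Tween 20. Incubated 2 h at 30° C; SPA counts fitted by non-linear regression to IC50 in nM.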

[1] = Assay (III): ThT fibrillation assay for physical stability; format: physicochemical; conditions: pH 7.5, 10 mM HEPES buffer, 37° C., shaking 960 rpm
From the text: Assay (III): ThT Fibrillation Assay for the Assessment of Physical Stability of Peptide Compositions
The purpose of this assay is to assess the physical stability of the GLP-1 derivatives of the invention in aqueous solutions.
Low physical stability of a peptide may lead to amyloid fibril formation, which is observed as well-ordered, thread-like macromolecular structures in the sample, which eventually may lead to gel formation. This has traditionally been measured by visual inspection of the sample. However, that kind of measurement is very subjective and depending on the observer. Therefore, the application of a small molecule indicator probe is much more advantageous. Thioflavin T (ThT) is such a probe and has a distinct fluorescence signature when binding to fibrils [Naiki et al. (1989) Anal. Biochem. 177, 244-249; LeVine (1999) Methods. Enzymol. 309, 274-284]. […]
Here, as depicted in FIG. 1, F is the ThT fluorescence at the time t. The constant t0 is the time needed to reach 50% of maximum fluorescence. The two important parameters describing fibril formation are the lag-time calculated by t0−2τ and the apparent rate constant kapp 1/τ. […]
Incubation at given temperature, shaking and measurement of the ThT fluorescence emission were done in a Fluoroskan Ascent FL fluorescence platereader (Thermo Labsystems). […]

T1 sequence (P43220 24-463): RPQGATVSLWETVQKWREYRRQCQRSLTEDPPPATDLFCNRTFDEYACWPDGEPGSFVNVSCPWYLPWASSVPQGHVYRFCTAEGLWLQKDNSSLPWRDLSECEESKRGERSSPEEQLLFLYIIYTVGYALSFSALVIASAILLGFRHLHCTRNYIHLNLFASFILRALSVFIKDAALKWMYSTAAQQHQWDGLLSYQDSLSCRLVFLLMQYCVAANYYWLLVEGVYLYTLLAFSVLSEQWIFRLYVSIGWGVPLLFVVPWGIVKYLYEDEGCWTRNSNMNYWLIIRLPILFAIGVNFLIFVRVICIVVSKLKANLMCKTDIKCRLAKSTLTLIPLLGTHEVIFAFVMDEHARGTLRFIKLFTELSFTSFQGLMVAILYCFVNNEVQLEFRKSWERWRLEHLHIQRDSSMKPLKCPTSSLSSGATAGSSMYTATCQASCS

For `CC[C@H](C)[C@H](NC(=O)[C@H](Cc1ccccc1)NC(=O)[C@H](CCC(=O)O)NC(=O)[C@H](CCCNC(=N)N)NC(=O)[C@H](C)NC(=O)[C@H](C)NC(=O)[C@H](CCC(N)=O)NC(=O)[C@H](CCCCNC(=O)CC[C@H](NC(=O)CC[C@H](NC(=O)COCCOCCNC(=O)COCCOCCNC(=O)CC[C@H](NC(=O)CCCCCCCCCCCCCCCCC(=O)O)C(=O)O)C(=O)O)C(=O)O)NC(=O)[C@H](CCC(=O)O)NC(=O)[C@H](CC(C)C)NC(=O)[C@H](Cc1ccc(O)cc1)NC(=O)[C@H](CCCCN)NC(=O)[C@H](CO)NC(=O)[C@@H](NC(=O)[C@H](CC(=O)O)NC(=O)[C@H](CO)NC(=O)[C@@H](NC(=O)[C@H](Cc1ccccc1)NC(=O)[C@@H](NC(=O)CNC(=O)[C@H](Cc1c[nH]cn1)NC(=O)C(C)(C)NC(=O)CCc1c[nH]cn1)[C@@H](C)O)[C@@H](C)O)C(C)C)C(=O)N[C@@H](C)C(=O)N[C@@H](Cc1c[nH]c2ccccc12)C(=O)N[C@@H](CC(C)C)C(=O)N[C@@H](CC(C)C)C(=O)N[C@@H](CCCCN)C(=O)NCC(=O)NCC(=O)NCC(=O)O` [Example 13, N^ε22-[(4S)-4-carboxy-4-[[(4S)-4-carboxy-4-[[2-[2-[2-[[2-[2-[2-[[(4S)-4-carboxy-4-(17-carboxyheptadecanoylamino)butanoyl]amino]ethoxy]ethoxy]acetyl]amino]ethoxy]ethoxy]acetyl]amino]butanoyl]amino]butanoyl]-[Imp7,Aib8,His9,Lys18,Lys22,Arg26,Leu33,Gly36]-GLP-1-(7-37)-peptide] (Desaminohistidyl-[Aib]HGTFTSDVSKYLEK([γGlu-γGlu-AEEA-AEEA-γGlu-C18 diacid])QAAREFIAWLLKGGG-OH), the IC50 (human GLP-1 receptor) was 0.5 nM and the “ThT assay pH 7.5: Lag time” value [1] was 45.0 h.
